Experimental findings from patent publication US20180170903A1, “PYRIDIN-3-YL ACETIC ACID DERIVATIVES AS INHIBITORS OF HUMAN IMMUNODEFICIENCY VIRUS REPLICATION” (ViiV HEALTHCARE UK (NO.5) LIMITED, priority 2015, published 2018) are described below.

Bounds are passed on as bounds.

The test system of the first assay is NL-RLuc virus (recombinant HIV NL4-3 proviral clone with Renilla Luciferase) in MT-2 cells. As to the kind of experiment: Inhibition of HIV Replication (NL-RLuc luciferase reporter virus, MT-2 cells). The note with it: MT2, 120 h, read-out: Activity. Type of assay: cell-based. The text has this: Inhibition of HIV Replication:
A recombinant NL-RLuc proviral clone was constructed in which a section of the nef gene from NL4-3 was replaced with the Renilla Luciferase gene. This virus is fully infectious and can undergo multiple cycles of replication in cell culture. In addition, the luciferous reporter provides a simple and easy method for quantitating the extent of virus growth and consequently, the antiviral activity of test compounds. The plasmid pNLRLuc contains the proviral NL-Rluc DNA cloned into pUC 18 at the PvuII site. The NL-RLuc virus was prepared by transfection of 293T cells with the plasmid pNLRLuc. Transfections were performed using the LipofectAMINE PLUS kit from Invitrogen (Carlsbad, Calif.) according to the manufacturer and the virus generated was titered in MT-2 cells. For susceptibility analyses, the titrated virus was used to infect MT-2 cells in the presence of compound, and after 5 days of incubation, cells were processed and quantitated for virus growth by the amount of expressed luciferase. Assay media was RPMI 1640 supplemented with 10% heat inactivated fetal bovine serum (FBS), 100 units/ml penicillin G/100 units/ml streptomycin, 10 mM HEPES buffer pH 7.55 and 2 mM L-glutamine. The results from at least 2 experiments were used to calculate the EC50 values. Luciferase was quantitated using the Dual Luciferase kit from Promega (Madison, Wis.). Susceptibility of viruses to compounds was determined by incubation in the presence of serial dilutions of the compound. The 50% effective concentration (EC50) was calculated by using the exponential form of the median effect equation where (Fa)=1/[1+(ED50/drug conc.)^m](Johnson V A, Byington R T. Infectivity Assay. In Techniques in HIV Research. ed. Aldovini A, Walker B D. 71-76. New York: Stockton Press. 1990). Activity equal to A refers to a compound having an EC50≤100 nM, while B and C denote compounds having an EC50 between 100 nM and 1 uM (B) or >1 uM (C).
With `CCOC(=O)N(Cc1ccc(F)cc1)Cc1ccc(-c2c(C)nc(C)c([C@H](OC(C)(C)C)C(=O)O)c2N2CCC(C)(C)CC2)cc1` [Example 33, (S)-2-(tert-butoxy)-2-(4-(4,4-dimethylpiperidin-1-yl)-5-(4-(((ethoxycarbonyl)(4 fluorobenzyl)amino)methyl)phenyl)-2,6-dimethylpyridin-3-yl)acetic acid], the EC50 was < 0.1 µM.
Same read-out and setting: in the case of `Cc1nc(C)c([C@H](OC(C)(C)C)C(=O)O)c(N2CCC(C)(C)CC2)c1-c1ccc(COC(C)(C)C)cc1` [Example 49, (S)-2-(tert-Butoxy)-2-(5-(4-(tert-butoxymethyl)phenyl)-4-(4,4-dimethylpiperidin-1-yl)-2,6-dimethylpyridin-3-yl)acetic acid] it was < 0.1 µM.
`COc1ccc(C(=O)N(Cc2ccc(F)cc2)Cc2ccc(-c3c(C)nc(C)c([C@H](OC(C)(C)C)C(=O)O)c3N3CCC(C)(C)CC3)cc2)cc1` [Example 45, (S)-2-(tert-butoxy)-2-(4-(4,4-dimethylpiperidin-1-yl)-5-(4-((N-(4-fluorobenzyl)-4-methoxybenzamido)methyl)phenyl)-2,6-dimethylpyridin-3-yl)acetic acid]: the EC50 was < 0.1 µM.
As for `Cc1nc(C)c([C@H](OC(C)(C)C)C(=O)O)c(N2CCC(C)(C)CC2)c1-c1ccc(COCc2ccc(F)cc2)cc1` [Example 51, (S)-2-(tert-Butoxy)-2-(4-(4,4-dimethylpiperidin-1-yl)-5-(4-(((4-fluorobenzyl)oxy)methyl)phenyl)-2,6-dimethylpyridin-3-yl)acetic acid], the EC50 is > 1 µM.
`CON(Cc1ccc(F)cc1)Cc1ccc(-c2c(C)nc(C)c([C@H](OC(C)(C)C)C(=O)O)c2N2CCC(C)(C)CC2)cc1` [Example 10, (S)-2-(tert-butoxy)-2-(4-(4,4-dimethylpiperidin-1-yl)-5-(4-(((4-fluorobenzyl)(methoxy)amino)methyl)phenyl)-2,6-dimethylpyridin-3-yl)acetic acid]: the EC50 is < 0.1 µM.
Still for that read-out and setting: in the case of `COC(=O)N(Cc1ccc(F)cc1)Cc1ccc(-c2c(C)nc(C)c([C@H](OC(C)(C)C)C(=O)O)c2N2CCC(C)(C)CC2)cc1` [Example 32, (S)-2-(tert-butoxy)-2-(4-(4,4-dimethylpiperidin-1-yl)-5-(4-(((4-fluorobenzyl)(methoxycarbonyl)amino)methyl)phenyl)-2,6-dimethylpyridin-3-yl)acetic acid] it was < 0.1 µM; in that of `Cc1nc(C)c([C@H](OC(C)(C)C)C(=O)O)c(N2CCC(C)(C)CC2)c1-c1ccc(CNCc2ccc(Cl)cc2)cc1` [Example 15, (S)-2-(tert-butoxy)-2-(5-(4-(((4-chlorobenzyl)amino)methyl)phenyl)-4-(4,4-dimethylpiperidin-1-yl)-2,6-dimethylpyridin-3-yl)acetic acid], < 0.1 µM; in that of `Cc1nc(C)c([C@H](OC(C)(C)C)C(=O)O)c(N2CCC(C)(C)CC2)c1-c1ccc(CN(Cc2ccc(F)cc2)C(=O)c2cccc(F)c2)cc1` [Example 41, (S)-2-(tert-butoxy)-2-(4-(4,4-dimethylpiperidin-1-yl)-5-(4-((3-fluoro-N-(4-fluorobenzyl)benzamido)methyl)phenyl)-2,6-dimethylpyridin-3-yl)acetic acid], < 0.1 µM.
With `Cc1nc(C)c([C@H](OC(C)(C)C)C(=O)O)c(N2CCC(C)(C)CC2)c1-c1ccc(CN(Cc2ccc(F)cc2)C(=O)c2cccc(C(F)(F)F)c2)cc1` [Example 38, (S)-2-(tert-butoxy)-2-(4-(4,4-dimethylpiperidin-1-yl)-5-(4-((N-(4-fluorobenzyl)-3-(trifluoromethyl)benzamio)methyl)phenyl)-2,6-dimethylpyridin-3-yl)acetic acid], the EC50 was < 0.1 µM.
On the same count and under the same terms, in the case of `Cc1nc(C)c([C@H](OC(C)(C)C)C(=O)O)c(N2CCC(C)(C)CC2)c1-c1ccc(CNCc2ccc(F)cc2)cc1` [Example 4, (S)-2-(tert-butoxy)-2-(4-(4,4-dimethylpiperidin-1-yl)-5-(4-(((4-fluorobenzyl)amino)methyl)phenyl)-2,6-dimethylpyridin-3-yl)acetic acid] it was < 0.1 µM.

The same assay, now with this note: MT2, 120 h, read-out: EC50 μM.
Regarding `Cc1nc(C)c([C@H](OC(C)(C)C)C(=O)O)c(N2CCC(C)(C)CC2)c1-c1ccc(CN(Cc2ccc(F)cc2)C(=O)c2cccc(F)c2)cc1` [Example 41, (S)-2-(tert-butoxy)-2-(4-(4,4-dimethylpiperidin-1-yl)-5-(4-((3-fluoro-N-(4-fluorobenzyl)benzamido)methyl)phenyl)-2,6-dimethylpyridin-3-yl)acetic acid], the EC50 was 0.015 µM.
